Source: the OPERA property sets (Mansouri et al. 2018)

SMILES	logP
CNC(=O)ON=C1SCOC1C (centres undefined)	0.46
CNC(=O)ON=C1COCS1	0.06
CNC(=O)ON=C1SC(C)OC1C (centres undefined)	0.96
CNC(=O)ON=C1SCOC1(C)C	0.82
CNC(=O)ON=C1CSC(C)(C)S1	1.33
CNC(=O)ON=C1COCCS1	0
CNC(=O)ON=C1SCOC1C(C)C (centres undefined)	1.48
CNC(=O)ON=C1SCSC1C (centres undefined)	0.91
CNC(=O)ON=C1SCOC1CCOC (centres undefined)	0.51
CCCC1OCSC1=NOC(=O)NC (centres undefined)	1.52
CNC(=O)ON=C1SCSC1(C)C	1.31
CNC(=O)ON=C1CSCS1	0.51
CNC(=O)ON=C1CSCCS1	0.49
CNC(=O)ON=C1SCCSC1(C)C	1.51
